Molecular target: CFTR-mediated chloride transport (Homo sapiens, UniProt P13569)
Experiment: Corrector Assay A - membrane potential dye assay (enteroid cells)
Details: for Corrector Assay A % activity: % of chloride transport of triple combination control (1 μM (14S)-dispiro macrocycle + 3 μM tezacaftor + 300 nM ivacaftor); for EC50: read-out: Corrector Assay A EC50, human intestinal enteroid cells, 18-24 h incubation, acute 10 μM forskolin + 300 nM ivacaftor

`CC(C)(C)c1ccc2c(n1)N1C[C@@H](CCC(c3cccnc3)Nc3cccc(n3)S(=O)(=O)NC2=O)CC1(C)C` (single isomer, unassigned) [Compound 282] was tested, and the “Corrector Assay A % activity” value was “+++ (+++ is >60%)” and the EC50 was under 1000 nM.

For `CC(C)(C)c1ccc2c(n1)N1C[C@@H](CCC(c3cccnc3)Nc3cccc(n3)S(=O)(=O)NC2=O)CC1(C)C` (single isomer, unassigned) [Compound 283], the “Corrector Assay A % activity” value was “+++ (+++ is >60%)” and the EC50 was under 1000 nM.

`Cn1nccc1C1CC[C@@H]2CN(c3nc(C(C)(C)C)ccc3C(=O)NS(=O)(=O)c3cccc(n3)N1)C(C)(C)C2` (single isomer, unassigned) [Compound 284] was tested, and the “Corrector Assay A % activity” value was “++ (++ is 30-60%)” and the EC50 was under 1000 nM.

For `Cn1nccc1C1CC[C@@H]2CN(c3nc(C(C)(C)C)ccc3C(=O)NS(=O)(=O)c3cccc(n3)N1)C(C)(C)C2` (single isomer, unassigned) [Compound 285], the “Corrector Assay A % activity” value was “+++ (+++ is >60%)” and the EC50 was under 1000 nM.

For `CC(C)C1CC[C@@H]2CN(c3nc(C(C)(C)C)ccc3C(=O)NS(=O)(=O)c3cccc(n3)N1)C(C)(C)C2` (single isomer, unassigned) [Compound 286], the “Corrector Assay A % activity” value was “+++ (+++ is >60%)” and the EC50 was under 1000 nM.

With `CC(C)C1CC[C@@H]2CN(c3nc(C(C)(C)C)ccc3C(=O)NS(=O)(=O)c3cccc(n3)N1)C(C)(C)C2` (single isomer, unassigned) [Compound 287] the “Corrector Assay A % activity” value was “+++ (+++ is >60%)” and the EC50 was under 1000 nM.

With `CC(C)COc1cc(F)cc(-c2ccc3c(n2)N2C[C@@H](CCC(c4ccccn4)Nc4cccc(n4)S(=O)(=O)NC3=O)CC2(C)C)c1` (single isomer, unassigned) [Compound 351] the “Corrector Assay A % activity” value was “+++ (+++ is >60%)” and the EC50 was under 1000 nM.

`CC(C)COc1cc(F)cc(-c2ccc3c(n2)N2C[C@@H](CCC(c4ccccn4)Nc4cccc(n4)S(=O)(=O)NC3=O)CC2(C)C)c1` (single isomer, unassigned) [Compound 352] was tested, and the “Corrector Assay A % activity” value was “++ (++ is 30-60%)” and the EC50 was under 1000 nM.

With `CC(C)C1CC[C@@H]2CN(c3nc(-n4ccc(OCCC5C6(CC6)C56CC6)n4)ccc3C(=O)NS(=O)(=O)c3cccc(n3)N1)C(C)(C)C2` (single isomer, unassigned) [Compound 353] the “Corrector Assay A % activity” value was “+++ (+++ is >60%)” and the EC50 was under 1000 nM.

For `CC(C)C1CC[C@@H]2CN(c3nc(-n4ccc(OCCC5C6(CC6)C56CC6)n4)ccc3C(=O)NS(=O)(=O)c3cccc(n3)N1)C(C)(C)C2` (single isomer, unassigned) [Compound 354], the “Corrector Assay A % activity” value was “+++ (+++ is >60%)” and the EC50 was under 1000 nM.

For `CC(C)C1CC[C@@H]2CN(c3nc(-n4ccc(OCCC5(C(F)(F)F)CC5)n4)ccc3C(=O)NS(=O)(=O)c3cccc(n3)N1)C(C)(C)C2` (single isomer, unassigned) [Compound 357], the “Corrector Assay A % activity” value was “+++ (+++ is >60%)” and the EC50 was under 1000 nM.

With `CC(C)(C)c1ccc2c(n1)N1C[C@@H](CCC(C(C)(C)O)Nc3cccc(n3)S(=O)(=O)NC2=O)CC1(C)C` (stereo partly drawn) [Compound 12, (14S)-8-tert-Butyl-17-(2-hydroxypropan-2-yl)-12,12-dimethyl-2λ^6-thia-3,9,11,18,23-pentaazatetracyclo[17.3.1.111,14.05,10]tetracosa-1(23),5(10),6,8,19,21-hexaene-2,2,4-trione] the “Corrector Assay A % activity” value was “+++ (+++ is >60%)” and the EC50 was under 1000 nM.

In the case of `CC(C)(C)c1ccc2c(n1)N1CC(CCC(C(C)(C)O)Nc3cccc(n3)S(=O)(=O)NC2=O)CC1(C)C` (stereo not shown) [Compound 13], the “Corrector Assay A % activity” value is reported as “++ (++ is 30-60%)” and the EC50 is reported as under 1000 nM.

For `CC(C)(C)c1ccc2c(n1)N1C[C@@H](CCC3CCCC(=O)N3c3cccc(n3)S(=O)(=O)NC2=O)CC1(C)C` (stereo partly drawn) [Compound 14, (10S)-16-tert-Butyl-12,12-dimethyl-22λ^6-thia-2,13,15,21,27-pentaazapentacyclo[21.3.1.110,13.02,7.014,19]octacosa-1(26),14(19),15,17,23(27),24-hexaene-3,20,22,22-tetrone], the “Corrector Assay A % activity” value was “++ (++ is 30-60%)” and the EC50 was under 1000 nM.

— US20220313698A1, “MODULATORS OF CYSTIC FIBROSIS TRANSMEMBRANE CONDUCTANCE REGULATOR” (Vertex Pharmaceuticals Incorporated, priority 2019, published 2022)
